Data from article PMC10579241, “Impact of trifluoromethyl and sulfonyl groups on the biological activity of novel aryl-urea derivatives: synthesis, in-vitro, in-silico and SAR studies” (Scientific Reports, 2023).
≈ marks a conversion by molar mass, not a printed value. Read-outs that look alike come from different tables or passages of the source. Marks after values point to notes of the source that are not given here.

Key:
BRCA2 = experiment: qRT-PCR, BRCA2 in PC3 cells; format: cell-based, human; settings: versus negative samples
PALB2 = experiment: qRT-PCR, PALB2 in PACA2 cells; format: cell-based, human; settings: versus negative untreated sample
[1] = system: human lung carcinoma (A549); experiment: cells; format: cell-based
PC3 [2] = experiment: DNA damage, comet assay, PC3; format: cell-based, human
HCT116 [3] = experiment: DNA damage, comet assay, HCT116; format: cell-based, human
PC3 [4] = experiment: DNA fragmentation assay, PC3; format: cell-based, human
PACA2 [5] = experiment: DNA damage, comet assay, PACA2; format: cell-based, human
[6] = system: pancreatic cancer cell line (PACA2); experiment: cells; format: cell-based; settings: Homo sapiens, PaCa-2, 48 h
Escherichia coli [7] = experiment: Agar well diffusion, E. coli; format: cell-based; settings: Escherichia coli, read-out: Inhibition zones diameter
skin cancer (A431) = experiment: cells; format: cell-based; settings: Homo sapiens, A-431, 100 μg/mL, 48 h
Escherichia coli [8] = experiment: MIC by serial dilution (agar wells), E. coli; format: cell-based
PACA2 [9] = experiment: DNA fragmentation assay, PACA2; format: cell-based, human
BRCA1 = experiment: qRT-PCR, BRCA1 in PC3 cells; format: cell-based, human; settings: versus negative samples
Candida albicans [10] = experiment: MIC by serial dilution (agar wells), C. albicans; format: cell-based
[11] = system: osteosarcoma cell line (HOS); experiment: cells; format: cell-based; settings: 48 h; for IC50: MTT
Bacillus mycoides [12] = experiment: microbe, parasite or virus in culture; format: cell-based
in vitro = format: cell-based; settings: human, BJ1 normal skin fibroblast cells, 100 μg/mL
[13] = system: normal skin fibroblast cell line (BJ1); experiment: cells; format: cell-based; settings: Homo sapiens, Skin fibroblast, MTT, 48 h
[14] = system: hepatocellular carcinoma cell line (HePG2); experiment: cells; format: cell-based; settings: Homo sapiens, 48 h
FASN = experiment: qRT-PCR, FASN in HCT116 cells; format: cell-based, human; settings: versus negative samples
Candida albicans [15] = experiment: Agar well diffusion, C. albicans; format: cell-based
CDKN2A = experiment: qRT-PCR, CDKN2A in PACA2 cells; format: cell-based, human; settings: versus negative untreated sample
prostate cancer (PC3) = experiment: cells; format: cell-based; settings: Homo sapiens, 48 h
Bacillus mycoides [16] = experiment: microbe, parasite or virus in culture; format: cell-based; remark: listed apart in the source
colon cancer (HCT116) = experiment: cells; format: cell-based; settings: Homo sapiens
HCT116 [17] = experiment: DNA fragmentation assay, HCT116; format: cell-based, human
[18] = 0.00488 mg/mL, 150 µL in DMSO, 15 mm agar well
[19] = 0.00975 mg/mL, 150 µL in DMSO, 15 mm agar well
[20] = 0.0195 mg/mL, 150 µL in DMSO, 15 mm agar well
[21] = 0.0391 mg/mL, 150 µL in DMSO, 15 mm agar well
[22] = 0.0781 mg/mL, 150 µL in DMSO, 15 mm agar well
[23] = 0.1563 mg/mL, 150 µL in DMSO, 15 mm agar well
[24] = 0.3125 mg/mL, 150 µL in DMSO, 15 mm agar well
[25] = 0.625 mg/mL, 150 µL in DMSO, 15 mm agar well
[26] = 1.25 mg/mL, 150 µL in DMSO, 15 mm agar well
[27] = 2.50 mg/mL, 150 µL in DMSO, 15 mm agar well
[28] = 5.00 mg/mL, 150 µL in DMSO, 15 mm agar well
[29] = 10.0 mg/mL, 150 µL in DMSO, 15 mm agar well
[30] = read-out: Minimum inhibition concentration (MIC)

Cc1ccc(S(=O)(=O)NC(=O)Nc2ccc(C(F)(F)F)cc2)cc1 [Compound 7, 4-Methyl-N-[(4-{trifluoromethyl}phenyl)carbamoyl]benzenesulfonamide]
BRCA2 gene expression level (BRCA2): decreased significantly | PALB2 gene expression level (PALB2): significantly reduced | mortality at 100 µg/mL ([1]; A549, 48 h, 100 μg/mL): 100% | IC50 ([1]; MTT, 48 h): 86.5 ± 1.4 µM | DNA damaged cells % (mean ± SEM) (PC3 [2]): 25.78 ± 1.44^a % | Class 0 (no tail), number of cells (PC3 [2]; of 400 cells analyzed): 297 | Class 1 (tail length < diameter of nucleus), number of cells (PC3 [2]; of 400 cells analyzed): 38 | Class 2 (tail length between 1 and 2 × the diameter of nucleus), number of cells (PC3 [2]; of 400 cells analyzed): 36 | Class 3 (tail length > 2 × the diameter of nucleus), number of cells (PC3 [2]; of 400 cells analyzed): 29 | No. of cells, Comets (PC3 [2]; of 400 cells analyzed): 103 | DNA damaged cells % (mean ± SEM) (HCT116 [3]): 25.56 ± 0.66^a % | Class 0 (no tail), number of cells (HCT116 [3]; of 400 cells analyzed): 298 | Class 1 (tail length < diameter of nucleus), number of cells (HCT116 [3]; of 400 cells analyzed): 29 | Class 2 (tail length between 1 and 2 × the diameter of nucleus), number of cells (HCT116 [3]; of 400 cells analyzed): 38 | Class 3 (tail length > 2 × the diameter of nucleus), number of cells (HCT116 [3]; of 400 cells analyzed): 35 | No. of cells, Comets (HCT116 [3]; of 400 cells analyzed): 102 | Change (DNA fragmentation versus untreated cells) (PC3 [4]): 24.5 | DNA fragmentation % M ± SEM (PC3 [4]; IC50 concentration, 24 h): 36.1 ± 0.60^a % | Inhibition (PC3 [4]; doxorubicin = 0.0): 21.89 | DNA damaged cells % (mean ± SEM) (PACA2 [5]): 23.52 ± 0.65^a % | Class 0 (no tail), number of cells (PACA2 [5]; of 400 cells analyzed): 306 | Class 1 (tail length < diameter of nucleus), number of cells (PACA2 [5]; of 400 cells analyzed): 35 | Class 2 (tail length between 1 and 2 × the diameter of nucleus), number of cells (PACA2 [5]; of 400 cells analyzed): 28 | Class 3 (tail length > 2 × the diameter of nucleus), number of cells (PACA2 [5]; of 400 cells analyzed): 31 | No. of cells, Comets (PACA2 [5]; of 400 cells analyzed): 94 | mortality at 100 µg/mL ([6]; 100 μg/mL): 100% | IC50 ([6]; MTT): 44.4 ± 0.57 µM | zone of inhibition at 10000 µg/mL (Escherichia coli [7]): 30 ± 0.74 mm | mortality at 100 µg/mL (skin cancer (A431)): 55.4 ± 1.25% | zone of inhibition at 4.88 µg/mL (Escherichia coli [8]; [18]): 15 mm | zone of inhibition at 9.75 µg/mL (Escherichia coli [8]; [19]): 16 mm | zone of inhibition at 19.5 µg/mL (Escherichia coli [8]; [20]): 17 mm | zone of inhibition at 39.1 µg/mL (Escherichia coli [8]; [21]): 18 mm | zone of inhibition at 78.1 µg/mL (Escherichia coli [8]; [22]): 19 mm | zone of inhibition at 156.3 µg/mL (Escherichia coli [8]; [23]): 20 mm | zone of inhibition at 312.5 µg/mL (Escherichia coli [8]; [24]): 22 mm | zone of inhibition at 625 µg/mL (Escherichia coli [8]; [25]): 23 mm | zone of inhibition at 1250 µg/mL (Escherichia coli [8]; [26]): 25 mm | zone of inhibition at 2500 µg/mL (Escherichia coli [8]; [27]): 26 mm | zone of inhibition at 5000 µg/mL (Escherichia coli [8]; [28]): 27 mm | zone of inhibition at 10000 µg/mL (Escherichia coli [8]; [29]): 28 mm | MIC (Escherichia coli [8]; [30]): 4.88 µg/mL (≈ 13.6 µM) | Change (DNA fragmentation versus untreated cells) (PACA2 [9]): 23.10 | DNA fragmentation % M ± SEM (PACA2 [9]; IC50 concentration, 24 h): 35.2 ± 0.68^a % | Inhibition (PACA2 [9]; doxorubicin = 0.0): 28.33 | BRCA1 gene expression level (BRCA1): decreased significantly | zone of inhibition at 4.88 µg/mL (Candida albicans [10]; [18]): 16 mm | zone of inhibition at 9.75 µg/mL (Candida albicans [10]; [19]): 17 mm | zone of inhibition at 19.5 µg/mL (Candida albicans [10]; [20]): 17 mm | zone of inhibition at 39.1 µg/mL (Candida albicans [10]; [21]): 17 mm | zone of inhibition at 78.1 µg/mL (Candida albicans [10]; [22]): 17 mm | zone of inhibition at 156.3 µg/mL (Candida albicans [10]; [23]): 18 mm | zone of inhibition at 312.5 µg/mL (Candida albicans [10]; [24]): 19 mm | zone of inhibition at 625 µg/mL (Candida albicans [10]; [25]): 22 mm | zone of inhibition at 1250 µg/mL (Candida albicans [10]; [26]): 25 mm | zone of inhibition at 2500 µg/mL (Candida albicans [10]; [27]): 27 mm | zone of inhibition at 5000 µg/mL (Candida albicans [10]; [28]): 28 mm | zone of inhibition at 10000 µg/mL (Candida albicans [10]; [29]): 29 mm | MIC (Candida albicans [10]; [30]): 4.88 µg/mL (≈ 13.6 µM) | mortality at 100 µg/mL ([11]; Homo sapiens, 100 μg/mL): 100% | IC50 ([11]; Homo sapiens): 102 µM | IC50 [11]: 102.1 ± 0.95 µM | zone of inhibition at 4.88 µg/mL (Bacillus mycoides [12]; read-out: Inhibition zone): 0 mm | zone of inhibition at 9.75 µg/mL (Bacillus mycoides [12]; read-out: Inhibition zone): 15 mm | zone of inhibition at 19.5 µg/mL (Bacillus mycoides [12]; read-out: Inhibition zone): 15 mm | zone of inhibition at 39.1 µg/mL (Bacillus mycoides [12]; read-out: Inhibition zone): 16 mm | zone of inhibition at 78.1 µg/mL (Bacillus mycoides [12]; read-out: Inhibition zone): 16 mm | zone of inhibition at 156.3 µg/mL (Bacillus mycoides [12]; read-out: Inhibition zone): 18 mm | zone of inhibition at 312.5 µg/mL (Bacillus mycoides [12]; read-out: Inhibition zone): 20 mm | zone of inhibition at 625 µg/mL (Bacillus mycoides [12]; read-out: Inhibition zone): 24 mm | zone of inhibition at 1250 µg/mL (Bacillus mycoides [12]; read-out: Inhibition zone): 26 mm | zone of inhibition at 2500 µg/mL (Bacillus mycoides [12]; read-out: Inhibition zone): 27 mm | zone of inhibition at 5000 µg/mL (Bacillus mycoides [12]; read-out: Inhibition zone): 28 mm | zone of inhibition at 10000 µg/mL (Bacillus mycoides [12]; read-out: Inhibition zone): 29 mm | MIC (Bacillus mycoides [12]; [30]): 9.75 µg/mL (≈ 27.2 µM) | mortality at 48 h, 100 µg/mL (in vitro): 12.3 ± 1.12% | IC50 [13]: 48.8 ± 0.26 µM | mortality at 100 µg/mL ([14]; 100 μg/mL): 100% | IC50 ([14]; MTT): 97.4 ± 1.11 µM | FASN gene expression level (FASN): suppression | Inhibition zones diameter (Candida albicans [15]; C. albicans, 200 μL of 10 mg/mL in DMSO in 15 mm holes, overnight 37 °C): 37 ± 1.20 mm | zone of inhibition at 10000 µg/mL (Candida albicans [15]; Candida albicans, read-out: Inhibition zones diameter): 37 mm | CDKN2A gene expression level (CDKN2A): significantly reduced | mortality at 100 µg/mL (prostate cancer (PC3); 100 μg/mL): 100% | IC50 (prostate cancer (PC3); MTT): 91.3 ± 0.28 µM | Inhibition zones diameter (Bacillus mycoides [16]; B. mycoides, 200 μL of 10 mg/mL in DMSO in 15 mm holes, overnight 37 °C): 36 ± 1.25 mm | zone of inhibition at 10000 µg/mL (Bacillus mycoides [16]; Bacillus mycoides, read-out: Inhibition zones diameter): 36 mm | mortality at 100 µg/mL (colon cancer (HCT116); HCT-116, 48 h, 100 μg/mL): 100% | IC50 (colon cancer (HCT116); HCT-116, MTT, 48 h): 93.5 ± 1.4 µM | Change (DNA fragmentation versus untreated cells) (HCT116 [17]): 26.20 | DNA fragmentation % M ± SEM (HCT116 [17]; IC50 concentration, 24 h): 37.1 ± 0.52^a % | Inhibition (HCT116 [17]; doxorubicin = 0.00): 24.76
